Patent publication US20020111272A1, “Glyphosate-induced male sterility in dicots” (priority 2000, published 2002)

How the values were obtained:
[1] = system: Paymaster 145 RR; experiment: Crossing block with hand pollination, boll and seed set (Example 2); assay type: in vivo, cotton; conditions: glyphosate applied as in Example 1 (about 64 oz/acre); end of season
Source text: A small isolated crossing block was planted with variety Paymaster 145 RR. Glyphosate was applied as indicated in the previous Example. The intention was to maintain male sterility and to cross pollinate (manually) with pollen from another Paymaster variety to produce actual F1 hybrid seed.

[2] = system: glyphosate-tolerant variety (RR1445) of Coker 312; experiment: Glyphosate-induced male sterility in cotton, field plots scored for fertility (Example 1); assay type: in vivo
Source text: A test was designed to determine whether glyphosate-induced male sterility in cotton could be reliably maintained throughout the blooming period.
The plant material used was a glyphosate-tolerant variety (RR1445) of Coker 312 obtained from Monsanto Co. (St. Louis, Mo.). Seed was planted in 25 foot long, single row plots, with a 38 inch row spacing. The test was replicated four times with treatments applied as follows:
Treatment 1: Single spray at 30 days post planting (“30 DPP”);
Treatment 2: Multiple sprays beginning at 30 DPP and repeating every 10 days (“30 DPP+10 D”)
Treatment 3: Multiple sprays beginning at 30 DPP and repeating every 20 days (“30 DPP+20 D”)
Treatment 4: Unsprayed control.
The sprays consisted of a single 2% solution of Roundup® brand glyphosate (41% formulation), which was equivalent to 20 ml/l, or 22/3 oz/gal. This solution was used in all spray treatments, and was applied to runoff. […] At the onset of bloom (mid-July) and through mid September, each plot was scored for fertility approximately every 5 days as follows:
0=Complete sterility; no pollen present upon rubbing anthers between fingers;
1=Practically no pollen present upon rubbing anthers, no self pollination possible because anthers never shed pollen, male-sterile for all practical purposes;
2=Very little pollen upon rubbing anthers, no natural pollen shed, no self pollination possible, male sterile for all practical purposes;
3=Some pollen present when anthers rubbed, a minimal amount of natural pollen shed on lower anthers, a very small amount of self pollination possible with insect activity;
4=Anthers shed pollen in sufficient amounts at all anther levels to self pollinate;
5=Anthers shed pollen in normal amounts from all anthers.

[3] = system: PM 2200 RR and PM 2326 RR; experiment: Spray rate test, fertility scores and seed set after hand pollination (Example 3); assay type: in vivo, cotton
Experimental: A further test was conducted using the varieties PM 2200 RR and PM 2326 RR, in which 4 levels of glyphosate spray rates were applied at 14 day intervals, beginning at 31 days post planting. The rates used were: 0, 16, 24 and 32 ounces/acre of glyphosate. Fertility scores were taken at roughly 2 day intervals during the season to follow male sterility development. At the same time hand pollination was done on 10 flowers in each treatment (all 3 replicates), also at 2 day intervals for a total of “10 crossing days”. This was to determine the amount of seed set under the various spray regimes and thus infer the degree of female sterility, if any, being induced by the glyphosate applications.

[4] = system: DP 6299 RR; experiment: Effect of glyphosate on soybean yield, male sterility assessed from yield (Example 4); assay type: in vivo
Source text: (§1) The glyphosate-tolerant soybean varieties DP 7220 RR, DP 6299 RR and DP 5414 RR were planted in replicated four row plots 18 feet in length, at planting and during growing season, end trimmed to 14.5 feet just prior to harvest to remove end effects in yield. Glyphosate (RoundUp® Ultra Max, Monsanto Co.) was applied starting 14 days post planting, with 5 applications at approximately 10 day intervals thereafter. The sprays consisted of a single 2% solution of the RoundUp® Ultra Max commercial glyphosate product, which is a 50% solution of glyphosate. This is equivalent to 16.25 ml/l or 2.17 oz/gal. This solution was used for all treatments, and was applied to runoff. Four rates of application were used: 0 ounces/acre (oz/acre) (control), 13.5 oz/acre (equivalent to the 16 oz/acre of the 41% formulation used in Examples 1-3), 26 oz/acre (equivalent to the 32 oz/acre used for Examples 1-3) and 52 oz/acre (equivalent to the 64 oz/acre used for Examples 1-3).
(§2) The two middle rows of each plot were harvested for yield, calculated in bushels/acre (bu/acre) based on this land area. Statistical significance was determined using a standard single-tailed T-test. Male sterility was assessed based on the yield, because soybean is a […] flower (the flowers never open until after fertilization), and thus is almost completely self-pollinated. A statistically significant reduction in the yield would therefore correlate with a decreased rate of fertilization. Pollen production was not assessed in this experiment, but based on the observations made in cotton (Examples 1-3), it is reasonable to conclude that the decrease in fertilization rate in soybeans was due to a decrease in viable pollen production.

[5] = system: DP 7220 RR; experiment: as above; assay type: in vivo
Source text: as §1, §2

[6] = system: DP 5414 RR; experiment: as above; assay type: in vivo
Source text: as §1, §2

Which “Boll set of hand pollinated flowers (female sterility)” value [1] does the source give for `O=C(O)CNCP(=O)(O)O` [glyphosate] here?
Its value is “practically all hand pollinated flowers had not set viable bolls”.

And the Fertility score ([2]; 30 DPP (single spray at 30 days post planting), 2% Roundup about 64 oz/acre, 58 days post planting, score 0 complete sterility to 5 normal pollen, practical sterility 2.75 or below)?
Its Fertility score is 1.00.

What about the Fertility score ([2]; 30 DPP + 10 D (sprays from 30 DPP every 10 days), 2% Roundup about 64 oz/acre, 58 days post planting) of the same compound?
The Fertility score was 1.00.

What about the Fertility score ([2]; 30 DPP + 10 D, 62 days post planting) of the same compound?
Its Fertility score is 1.00.

What about the Fertility score ([2]; 30 DPP + 10 D, 66 days post planting) of the same compound?
The Fertility score was 1.00.

And the Fertility score ([2]; 30 DPP + 10 D, 70 days post planting)?
The Fertility score was 1.00.

What about the Fertility score ([2]; 30 DPP + 10 D, 75 days post planting) of the same compound?
The Fertility score was 1.00.

What about the Fertility score ([2]; 30 DPP + 10 D, 80 days post planting) of the same compound?
The Fertility score was 1.25.

And the Fertility score ([2]; 30 DPP + 10 D, 85 days post planting)?
Its Fertility score is 1.25.

And the Fertility score ([2]; 30 DPP + 10 D, 90 days post planting)?
The Fertility score was 1.25.

And the Fertility score ([2]; 30 DPP + 10 D, 104 days post planting)?
Its Fertility score is 1.25.

What about the Fertility score ([2]; 30 DPP + 20 D (sprays from 30 DPP every 20 days), 2% Roundup about 64 oz/acre, 58 days post planting) of the same compound?
Its Fertility score is 1.00.

What about the Fertility score ([2]; 30 DPP + 20 D, 62 days post planting) of the same compound?
The Fertility score was 1.75.

And the Fertility score ([2]; 30 DPP + 20 D, 66 days post planting)?
Its Fertility score is 2.5.

What about the Fertility score ([2]; 30 DPP + 20 D, 70 days post planting) of the same compound?
Its Fertility score is 2.75.

And the Fertility score ([2]; 30 DPP + 20 D, 75 days post planting)?
The Fertility score was 2.5.

What about the Fertility score ([2]; 30 DPP + 20 D, 80 days post planting) of the same compound?
The Fertility score was 1.75.

What about the Fertility score ([2]; 30 DPP + 20 D, 85 days post planting) of the same compound?
Its Fertility score is 1.75.

What about the Fertility score ([2]; 30 DPP + 20 D, 90 days post planting) of the same compound?
Its Fertility score is 1.50.

What about the Fertility score ([2]; 30 DPP + 20 D, 104 days post planting) of the same compound?
Its Fertility score is 1.50.

What about the Fertility score ([2]; 30 DPP single spray, 62 days post planting) of the same compound?
Its Fertility score is 3.00.

And the Fertility score ([2]; 30 DPP single spray, 66 days post planting)?
Its Fertility score is 3.75.

And the Fertility score ([2]; 30 DPP single spray, 70 days post planting)?
Its Fertility score is 4.00.

And the Fertility score ([2]; 30 DPP single spray, 75 days post planting)?
Its Fertility score is 4.25.

What about the Fertility score ([2]; 30 DPP single spray, 80 days post planting) of the same compound?
The Fertility score was 4.50.

What about the Fertility score ([2]; 30 DPP single spray, 85 days post planting) of the same compound?
Its Fertility score is 5.00.

And the Fertility score ([2]; 30 DPP single spray, 90 days post planting)?
Its Fertility score is 5.00.

And the Fertility score ([2]; 30 DPP single spray, 104 days post planting)?
Its Fertility score is 5.00.

What about the “Adverse effects of the multiple sprays (other than male sterility)” value ([2]; throughout the season, about 64 oz/acre) of the same compound?
The value was “No adverse effects”.

What about the “Induction of male sterility” value ([2]; treatment 2 (30 DPP+10 D), about 64 oz/acre) of the same compound?
The value was “adequate to induce sterility”.

What about the “Induction of male sterility” value ([2]; treatment 3 (30 DPP+20 D), about 64 oz/acre) of the same compound?
Its value is “adequate to induce sterility”.

And the Female sterility ([3]; 24 oz/acre rate at roughly 10 day intervals (best effect))?
The Female sterility was “minimal or no female sterility”.

And the Male sterility ([3]; all rates used: 16, 24 and 32 ounces/acre, 14 day intervals from 31 days post planting)?
Its Male sterility is “produced male sterility”.

What about the “Boll and hybrid seed set after hand pollination” value ([3]; all the spray rates tested (16, 24, 32 oz/acre)) of the same compound?
The value was “Full, mature bolls bearing hybrid seed were produced”.

What about the “Level of male sterility induced” value ([3]; both varieties PM 2200 RR and PM 2326 RR, small varietal difference) of the same compound?
The value was “adequate for hybrid production”.

What about the “Male sterility (assessed from yield)” value ([4]; 13.5 to 52 oz/acre) of the same compound?
Its value is “complete male-sterility was not achieved”.

And the “Average Difference from Control” value ([4]; application rate 13.5 oz./acre)?
Its value is 1.23 oz./acre.

What about the Yield ([4]; application rate 13.5 oz./acre) of the same compound?
Its Yield is 36.45 bu/acre.

And the “Average Difference from Control” value ([4]; application rate 26 oz./acre)?
The value was 9.65 oz./acre.

And the Yield ([4]; application rate 26 oz./acre)?
Its Yield is 28.03 bu/acre.

And the “Average Difference from Control” value ([4]; application rate 52 oz./acre)?
Its value is 10.18 oz./acre.

What about the Yield ([4]; application rate 52 oz./acre) of the same compound?
The Yield was 27.50 bu/acre.

What about the “Male sterility (assessed from yield)” value ([5]; 13.5 to 52 oz/acre) of the same compound?
Its value is “complete male-sterility was not achieved”.

What about the “Average Difference from Control” value ([5]; application rate 13.5 oz./acre) of the same compound?
Its value is 4.05 oz./acre.

What about the Yield ([5]; application rate 13.5 oz./acre) of the same compound?
The Yield was 35.95 bu/acre.

And the “Average Difference from Control” value ([5]; application rate 26 oz./acre)?
Its value is 8.27 oz./acre.

What about the Yield ([5]; application rate 26 oz./acre) of the same compound?
The Yield was 31.73 bu/acre.

And the “Average Difference from Control” value ([5]; application rate 52 oz./acre)?
The value was 11.55 oz./acre.

And the Yield ([5]; application rate 52 oz./acre)?
The Yield was 28.45 bu/acre.

And the “Male sterility (assessed from yield)” value ([6]; 13.5 to 52 oz/acre)?
Its value is “complete male-sterility was not achieved”.

And the “Average Difference from Control” value ([6]; application rate 13.5 oz./acre)?
Its value is 2.05 oz./acre.

What about the Yield ([6]; application rate 13.5 oz./acre) of the same compound?
The Yield was 32.53 bu/acre.

And the “Average Difference from Control” value ([6]; application rate 26 oz./acre)?
Its value is 8.30 oz./acre.

What about the Yield ([6]; application rate 26 oz./acre) of the same compound?
Its Yield is 26.28 bu/acre.

And the “Average Difference from Control” value ([6]; application rate 52 oz./acre)?
Its value is 8.65 oz./acre.

What about the Yield ([6]; application rate 52 oz./acre) of the same compound?
Its Yield is 25.93 bu/acre.
